In assay [1] the target is TRKC (Homo sapiens (Human), UniProt Q16288). Nature of the assay: Inhibitory activity on TRKC (ADP-Glo Kinase Assay).
The subject of assay [2] is diabetic foot animal model. Nature of the assay: Diabetic foot animal model (high-fat diet mice, back wound). It is filed as in vivo, C57BL/6 male mice. The text has this: Twenty 2-month-old normal wild-type C57BL/6 male mice were ordered from Jicai Pharmaceutical and divided into two groups of 10 each. One group was fed a standard diet (SD), and the other group was fed a 60% high-fat diet (HFD) to induce obesity. Both groups were fed under the same conditions for about 6 months. Additionally, five 2-month-old young male mice were ordered to perform subsequent wound modeling and comparison with the SD group (8 months old, 10 mice) and the HFD group (8 months old, 10 mice). Mice were anesthetized with isoflurane, and a razor was used to remove the back hair, exposing the back skin. A marker pen and ruler were used to draw a 1.0 cm×0.5 cm rectangular area on each side of the back. A sterilized surgical scissor was used to cut away the skin in this area without damaging the subcutaneous tissue. After the mice regained consciousness, they were carefully placed back in their cages. The animals were euthanized at specified time intervals after the injury, and the wound tissue was collected for subsequent experiments and analysis. After creating wounds on the left and right sides of the mouse's back, the mice were grouped and administered drugs as indicated in the table below (where Control represents a blank drug control with DMSO+vehicle). The 1228 gel (0.5% or 1%) was administered every 12 hours, with a dose of 50 mg each time. The wounds were photographed and weighed daily (every 24 hours) for 7 days, and then samples were collected at the 7th day. Specific operational details are described in the section “3. Sample Collection and Analysis” below. [table] After anesthesia, the mice were placed on an operation table with their backs extended, and high-definition photographs of the entire back and the local wound area of the mice were taken (including a ruler). […] The body weight of the mice was also measured to analyze the impact of the drug on systemic metabolism. On the seventh day of wound repair after modeling on the mouse's back, the mice were euthanized, and the wound tissue was collected for subsequent experiments and analysis, including tissue from the center of the wound and distal non-wounded control skin. The tissue was embedded in OCT and subjected to cryosectioning for subsequent HE or multiple staining analysis. Mouse skin tissue was placed in an embedding box filled with OCT (Tissue-Tek® O.C.T. Compound, Catalog #4583, Sakura Finetek USA Inc) and laid flat on dry ice to quick-freeze. Once the OCT was fully frozen, the embedding box was transferred to a −20° C. freezer for storage. Before sectioning, the cryostat was pre-cooled to −25° C. […] The flattened tissue sections were attached to glass slides and checked under a microscope for completeness. The sections were left to air-dry at room temperature for 2-3 hours before being stored in a −20° C. freezer. The sections were taken out of the −20° C. freezer and allowed to thaw at room temperature, and the condensation water was dried for 10-20 minutes until completely dry. The sections were then fixed with 500-1000 μL of frozen 4% paraformaldehyde (4% paraformaldehyde prepared by diluting 10 ml of 16% PFA—paraformaldehyde in 30 ml of frozen PBS and stored at 4° C.) for 10 minutes at room temperature. The sections were washed once with dH2O (single distilled water) (incubation<1 minute). After washing, hematoxylin solution was added, and the sections were incubated for 55-60 seconds, then quickly washed three times with running tap water until no blue dye was visible. Eosin solution was added next, and the sections were incubated for 25-30 seconds, then quickly washed three times with running tap water, followed by washing with 70% ethanol once. The sections were dehydrated in 100% ethanol for 5 minutes and then in xylene for 5 minutes. Finally, the sections were coverslipped with a neutral resin, taking care not to trap air bubbles when placing the coverslip with forceps. […]

Two compounds from patent US20250387388A1, “COMPOUND AS TRK INHIBITOR AND/OR RET INHIBITOR AND USE THEREOF” (Medinno Pharmaceutical Technology (Zhuhai) Co., Ltd., priority 2022, published 2025) can be followed below.

By IC50 is commonly meant the point on the concentration scale where inhibition reaches its midpoint. High values mean weaker potency in that assay, low ones greater potency in that assay.

Structures are written as SMILES.

Chain of TRKC (Q16288 32-839): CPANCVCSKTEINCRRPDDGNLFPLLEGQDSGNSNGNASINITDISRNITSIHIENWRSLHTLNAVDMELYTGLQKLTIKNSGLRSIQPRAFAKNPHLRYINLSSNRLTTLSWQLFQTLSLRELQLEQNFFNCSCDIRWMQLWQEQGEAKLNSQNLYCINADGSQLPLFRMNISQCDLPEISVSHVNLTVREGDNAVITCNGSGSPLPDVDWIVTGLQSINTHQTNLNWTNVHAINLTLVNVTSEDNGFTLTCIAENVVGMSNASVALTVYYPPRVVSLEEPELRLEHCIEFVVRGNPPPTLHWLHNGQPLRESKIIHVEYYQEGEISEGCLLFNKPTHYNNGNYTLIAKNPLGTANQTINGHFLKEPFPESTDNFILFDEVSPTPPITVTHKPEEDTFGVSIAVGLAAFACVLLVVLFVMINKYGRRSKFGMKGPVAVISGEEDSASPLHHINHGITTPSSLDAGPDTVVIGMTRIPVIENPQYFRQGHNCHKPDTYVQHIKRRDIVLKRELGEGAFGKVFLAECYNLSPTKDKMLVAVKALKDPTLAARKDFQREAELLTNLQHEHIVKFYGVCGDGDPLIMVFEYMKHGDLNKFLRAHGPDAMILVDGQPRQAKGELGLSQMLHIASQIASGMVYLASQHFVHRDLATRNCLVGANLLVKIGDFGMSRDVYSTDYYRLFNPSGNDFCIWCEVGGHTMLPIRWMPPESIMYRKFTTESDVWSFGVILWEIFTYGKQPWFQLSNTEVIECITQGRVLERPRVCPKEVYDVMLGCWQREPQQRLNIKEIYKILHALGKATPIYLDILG

Regarding `CCc1cc(O)c(F)cc1-c1ccc2c(-c3nc4c([nH]3)CN(C(=O)NCC(O)CCl)C4)n[nH]c2c1` (centres unmarked) [MDI-1288], the IC50 in assay [1] came out at 0.59 nM. Moreover, in assay [2] (conclusion / summary statement), the “Lipolysis in the diabetic foot model” value is on record as “can significantly promote lipolysis”, the “Myofibroblasts at the wound” value is given as “significantly increase the proportion of myofibroblasts” and the Wound healing result was “effectively promote wound healing”.
As for `CCc1cc(O)c(F)cc1-c1ccc2c(-c3nc4c([nH]3)CN(C(=O)N3CC[C@H](O)C3)C4)n[nH]c2c1` [MDI-1228, (S)-(2-(6-(2-ethyl-5-fluoro-4-hydroxyphenyl)-1H-indazol-3-yl)-4,6-dihydropyrrolo[3,4-d]imidazol-5-(1H)-yl)(3-hydroxylpyrrolidin-1-yl)ketone], the IC50 in assay [1] came to 0.6 nM. In addition, the “Epithelial healing (wound non-healing distance)” value in assay [2] (1% MDI-1228 gel, HFD group) is “could effectively promote epithelial healing”. For the same compound, the “Area of green lipid droplets in the wound center (Bodipy staining)” value in assay [2] (MDI-1228 gel 50 mg every 12 hours, 7 days) was “significantly reduced”. Besides, the “Size of the adipocytes in the wound center (HE staining)” value in assay [2] (MDI-1228 gel 50 mg every 12 hours, 7 days, vs. control) is “significantly reduced”.
